Experimental data: PubChem BioAssay AID256 (DTP/NCI, 2004)
Toxic doses and inconclusive results are not listed. How the source made its calls: active means survival T/C of 150% or more; inactive means T/C below 125% in these data.

System: CD2F1 mice, L1210 leukemia ip, survival T/C
Assay: NCI In Vivo Anticancer Drug Screen. Data for tumor model L1210 Leukemia (intraperitoneal) in CD2F1 (CDF1) mice
Conditions: higher = longer survival
In short: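 Each value reflects a quotient of treated over vehicle control outcomes in mice with a transplanted tumor.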

[1] = endpoint: mean survival time, dose: 100.0 mg/kg/injection, schedule: Q01DX009 (ip), vehicle: saline with Tween-80
[2] = endpoint: mean survival time, dose: 100.0 mg/kg/injection, schedule: Q04DX003 (ip), vehicle: saline with Tween-80
[3] = endpoint: mean survival time, dose: 200.0 mg/kg/injection, schedule: Q01DX009 (ip), vehicle: saline with Tween-80
[4] = endpoint: mean survival time, dose: 200.0 mg/kg/injection, schedule: Q04DX003 (ip), vehicle: saline with Tween-80
[5] = endpoint: mean survival time, dose: 400.0 mg/kg/injection, schedule: Q01DX009 (ip), vehicle: saline with Tween-80
[6] = endpoint: mean survival time, dose: 400.0 mg/kg/injection, schedule: Q04DX003 (ip), vehicle: saline with Tween-80
[7] = endpoint: mean survival time, dose: 25.0 mg/kg/injection, schedule: Q01DX009 (ip), vehicle: saline with Tween-80
[8] = endpoint: mean survival time, dose: 50.0 mg/kg/injection, schedule: Q01DX009 (ip), vehicle: saline with Tween-80
[9] = endpoint: mean survival time, dose: 100.0 mg/kg/injection, schedule: Q04DX002 (ip), vehicle: saline with Tween-80
[10] = endpoint: mean survival time, dose: 200.0 mg/kg/injection, schedule: Q04DX002 (ip), vehicle: saline with Tween-80
[11] = endpoint: mean survival time, dose: 400.0 mg/kg/injection, schedule: Q04DX002 (ip), vehicle: saline with Tween-80
[12] = endpoint: mean survival time, dose: 100.0 mg/kg/injection, schedule: Q01DX001 (ip), vehicle: saline with Tween-80
[13] = endpoint: mean survival time, dose: 400.0 mg/kg/injection, schedule: Q01DX001 (ip), vehicle: saline with Tween-80
[14] = endpoint: mean survival time, dose: 200.0 mg/kg/injection, schedule: Q01DX001 (ip), vehicle: saline with Tween-80

Measured: T/C

O=C(c1ccc(-c2ccccc2)cc1)C1(Br)CCCCC1
inactive: [1] 102 % of control | [2] 101 % of control | [3] 96 % of control | [4] 102 % of control | [5] 97 % of control | [6] 98 % of control

CC1=C/C(=C/c2ccccc2)CC(C)(C)C1 (tested in a mixture with another compound)
inactive: [7] 105 % of control | [8] 103 % of control | [1] 95 % of control | [2] 100 % of control

CCC1(O)C(=O)OCc2c1cc1n(c2=O)Cc2cc3ccc(N(C)C)cc3nc2-1 (stereo unspecified)
inactive: endpoint: median survival time, dose: 10.0 mg/kg/injection, schedule: Q04DX002 (ip), vehicle: saline with Tween-80 103 % of control | endpoint: median survival time, dose: 20.0 mg/kg/injection, schedule: Q04DX002 (ip), vehicle: saline with Tween-80 106 % of control | endpoint: median survival time, dose: 40.0 mg/kg/injection, schedule: Q04DX002 (ip), vehicle: saline with Tween-80 106 % of control | endpoint: median survival time, dose: 80.0 mg/kg/injection, schedule: Q04DX002 (ip), vehicle: saline with Tween-80 112 % of control

O=N[O-].O=N[O-].[Co].[NH2-].[NH2-].[NH2-].[NH2-]
inactive: endpoint: mean survival time, dose: 25.0 mg/kg/injection, schedule: Q04DX002 (ip), vehicle: saline with Tween-80 93 % of control | endpoint: mean survival time, dose: 50.0 mg/kg/injection, schedule: Q04DX002 (ip), vehicle: saline with Tween-80 101 % of control | [9] 101 % of control

CCOC(=N)c1cn(C2OC(CO)C(O)C2O)c2nc[nH]c(=O)c12 (stereo unspecified)
inactive: endpoint: mean survival time, dose: 75.0 mg/kg/injection, schedule: Q01DX001 (ip), vehicle: saline 119 % of control

CCC(=O)Nc1nn[nH]n1
inactive: [9] 105 % of control | [10] 102 % of control | [11] 94 % of control

Cc1cccc(OCC(=O)O)c1
inactive: [8] 97 % of control | [1] 95 % of control | [2] 95 % of control | [3] 90 % of control | [4] 93 % of control

O=c1[nH]cc(S(=O)(=O)Nc2ccccc2)c(=O)[nH]1
inactive: [12] 88 % of control | [13] 96 % of control

COc1ccc(NC(=O)Oc2ccc(SC)cc2)cc1
inactive: [9] 98 % of control | [10] 102 % of control | [11] 98 % of control

O=C(NCCC1CCC2OC2C1)c1ccccc1 (stereo unspecified)
inactive: [1] 96 % of control | [2] 107 % of control | [3] 98 % of control | [4] 100 % of control | [5] 96 % of control | [6] 94 % of control

Cc1ccc(S(=O)c2ccc(C)cc2)cc1
inactive: endpoint: mean survival time, dose: 100.0 mg/kg/injection, schedule: Q01DX001 (ip), vehicle: Klucel (hydroxypropylcellulose) (HPC) 101 % of control | [12] 100 % of control | endpoint: mean survival time, dose: 200.0 mg/kg/injection, schedule: Q01DX001 (ip), vehicle: Klucel (hydroxypropylcellulose) (HPC) 89 % of control | [14] 103 % of control | endpoint: mean survival time, dose: 400.0 mg/kg/injection, schedule: Q01DX001 (ip), vehicle: Klucel (hydroxypropylcellulose) (HPC) 93 % of control | [13] 100 % of control

CC(C)NC(=O)CCn1c(=O)c2ccccc2c(=O)n1C
inactive: endpoint: mean survival time, dose: 25.0 mg/kg/injection, schedule: Q04DX003 (ip), vehicle: saline 98 % of control | endpoint: mean survival time, dose: 50.0 mg/kg/injection, schedule: Q04DX003 (ip), vehicle: saline 98 % of control | endpoint: mean survival time, dose: 100.0 mg/kg/injection, schedule: Q04DX003 (ip), vehicle: saline 96 % of control | endpoint: mean survival time, dose: 200.0 mg/kg/injection, schedule: Q04DX003 (ip), vehicle: saline 106 % of control | endpoint: mean survival time, dose: 400.0 mg/kg/injection, schedule: Q04DX003 (ip), vehicle: saline 101 % of control

COC(=O)c1ccccc1C=C(c1ccc([N+](=O)[O-])cc1)c1ccc([N+](=O)[O-])cc1
inactive: [1] 93 % of control | [2] 94 % of control | [3] 93 % of control | [4] 96 % of control | [6] 88 % of control

O=[C-]CC(=O)c1ccccc1.O=[C-]CC(=O)c1ccccc1.[Fe+2]
inactive: [12] 95 % of control | [14] 87 % of control | [13] 89 % of control

CCOC(=O)C1=C(NC(=O)Nc2cccc(C(F)(F)F)c2)SC2CCCCC12 (stereo unspecified)
inactive: [8] 94 % of control | [1] 91 % of control | [3] 87 % of control

CC1Cc2c([nH]c3ccc(Cl)cc23)CN1 (stereo unspecified)
inactive: [9] 86 % of control | [10] 89 % of control

COC(=O)c1c(CC#N)ncn1C1CC(OC(=O)c2ccc(C)cc2)C(COC(=O)c2ccc(C)cc2)O1 (stereo unspecified)
inactive: endpoint: median survival time, dose: 9.88 mg/kg/injection, schedule: Q01DX005 (ip), vehicle: water 101 % of control | endpoint: median survival time, dose: 19.75 mg/kg/injection, schedule: Q01DX005 (ip), vehicle: water 96 % of control | endpoint: median survival time, dose: 39.5 mg/kg/injection, schedule: Q01DX005 (ip), vehicle: water 96 % of control | endpoint: median survival time, dose: 79.0 mg/kg/injection, schedule: Q01DX005 (ip), vehicle: water 97 % of control | endpoint: median survival time, dose: 158.0 mg/kg/injection, schedule: Q01DX005 (ip), vehicle: water 100 % of control

COc1cc([C@@H]2c3cc4c(c(O)c3C[C@H]3COC(=O)[C@@H]32)OCO4)cc(OC)c1O
inactive: endpoint: mean survival time, dose: 125.0 micrograms/kg/injection, schedule: Q01DX009 (ip), vehicle: saline 102 % of control | endpoint: mean survival time, dose: 250.0 micrograms/kg/injection, schedule: Q01DX009 (ip), vehicle: saline 108 % of control | endpoint: mean survival time, dose: 500.0 micrograms/kg/injection, schedule: Q01DX009 (ip), vehicle: saline 110 % of control | endpoint: mean survival time, dose: 1000.0 micrograms/kg/injection, schedule: Q01DX009 (ip), vehicle: saline 122 % of control | endpoint: mean survival time, dose: 2000.0 micrograms/kg/injection, schedule: Q01DX009 (ip), vehicle: saline 118 % of control

O=C1C2(c3ccccc3)CCC1(c1ccccc1)C(c1ccccc1)=C2c1ccccc1
inactive: endpoint: mean survival time, dose: 25.0 mg/kg/injection, schedule: Q01DX001 (ip), vehicle: saline with Tween-80 94 % of control | endpoint: mean survival time, dose: 50.0 mg/kg/injection, schedule: Q01DX001 (ip), vehicle: saline with Tween-80 87 % of control | [12] 90 % of control

COc1cc(C)c(Br)c(OC)c1
inactive: [2] 92 % of control | [4] 99 % of control | [6] 99 % of control

CCOC(=O)C(C)(C)CN1COCC1(C)C
inactive: [12] 112 % of control | [14] 109 % of control

N=C(N)SSCc1ccco1
inactive: endpoint: mean survival time, dose: 5.0 mg/kg/injection, schedule: Q04DX002 (ip), vehicle: saline with Tween-80 96 % of control | endpoint: mean survival time, dose: 10.0 mg/kg/injection, schedule: Q04DX002 (ip), vehicle: saline with Tween-80 103 % of control | endpoint: mean survival time, dose: 20.0 mg/kg/injection, schedule: Q04DX002 (ip), vehicle: saline with Tween-80 100 % of control

O=C(Nc1ccccc1)Nc1ccc(Cl)c(Cl)c1
inactive: endpoint: mean survival time, dose: 100.0 mg/kg/injection, schedule: Q04DX003 (ip), vehicle: acetone 98 % of control | endpoint: mean survival time, dose: 200.0 mg/kg/injection, schedule: Q04DX003 (ip), vehicle: acetone 101 % of control | endpoint: mean survival time, dose: 400.0 mg/kg/injection, schedule: Q04DX003 (ip), vehicle: acetone 106 % of control

COc1cc(CNC(=O)/C(C)=C/Cl)ccc1O
inactive: endpoint: mean survival time, dose: 12.5 mg/kg/injection, schedule: Q01DX009 (ip), vehicle: saline with Tween-80 96 % of control | [7] 95 % of control | [8] 101 % of control

CO[C@@]12[C@@H]3N[C@@H]3CN1C1=C(C(=O)C(NCc3ccco3)=C(C)C1=O)[C@@H]2COC(N)=O
inactive: endpoint: mean survival time, dose: 1.5 mg/kg/injection, schedule: Q01DX001 (ip), vehicle: distilled water + Tween-80 113 % of control | endpoint: mean survival time, dose: 3.0 mg/kg/injection, schedule: Q01DX001 (ip), vehicle: distilled water + Tween-80 120 % of control | endpoint: mean survival time, dose: 36.0 mg/kg/injection, schedule: Q01DX001 (ip), vehicle: distilled water + Tween-80 108 % of control
active: endpoint: mean survival time, dose: 24.0 mg/kg/injection, schedule: Q01DX001 (ip), vehicle: distilled water + Tween-80 156 % of control

O=c1cc(NCCCc2ccccc2)[nH]c(=O)[nH]1
inactive: [12] 100 % of control | [14] 92 % of control | [13] 93 % of control

C[N+](C)(C)c1cccc(S)c1
inactive: [9] 104 % of control | [10] 112 % of control | [11] 100 % of control

Cc1cccc2cc3c(sc4ccccc43)c(C)c12
inactive: endpoint: mean survival time, dose: 7.9 mg/kg/injection, schedule: Q04DX003 (ip), vehicle: other 101 % of control | endpoint: mean survival time, dose: 15.7 mg/kg/injection, schedule: Q04DX003 (ip), vehicle: other 97 % of control | endpoint: mean survival time, dose: 31.3 mg/kg/injection, schedule: Q04DX003 (ip), vehicle: other 97 % of control | endpoint: mean survival time, dose: 62.5 mg/kg/injection, schedule: Q04DX003 (ip), vehicle: other 97 % of control | endpoint: mean survival time, dose: 125.0 mg/kg/injection, schedule: Q04DX003 (ip), vehicle: other 93 % of control

O=C(O)CCC(Cc1ccccc1)C(=O)O (stereo unspecified)
inactive: [1] 97 % of control | [3] 94 % of control | [5] 86 % of control
